Assay results reported in ChEMBL document CHEMBL6078631, “Covalent inhibitors meet epigenetics: New opportunities” (Eur J Med Chem, 2024).

Target: RNA cytosine C(5)-methyltransferase NSUN2 (Homo sapiens) (UniProt Q08J23)
Assay: Binding affinity to human NSUN2 assessed as ratio of kinact/Ki

Chain of RNA cytosine C(5)-methyltransferase NSUN2 (Homo sapiens) (Q08J23 whole entry): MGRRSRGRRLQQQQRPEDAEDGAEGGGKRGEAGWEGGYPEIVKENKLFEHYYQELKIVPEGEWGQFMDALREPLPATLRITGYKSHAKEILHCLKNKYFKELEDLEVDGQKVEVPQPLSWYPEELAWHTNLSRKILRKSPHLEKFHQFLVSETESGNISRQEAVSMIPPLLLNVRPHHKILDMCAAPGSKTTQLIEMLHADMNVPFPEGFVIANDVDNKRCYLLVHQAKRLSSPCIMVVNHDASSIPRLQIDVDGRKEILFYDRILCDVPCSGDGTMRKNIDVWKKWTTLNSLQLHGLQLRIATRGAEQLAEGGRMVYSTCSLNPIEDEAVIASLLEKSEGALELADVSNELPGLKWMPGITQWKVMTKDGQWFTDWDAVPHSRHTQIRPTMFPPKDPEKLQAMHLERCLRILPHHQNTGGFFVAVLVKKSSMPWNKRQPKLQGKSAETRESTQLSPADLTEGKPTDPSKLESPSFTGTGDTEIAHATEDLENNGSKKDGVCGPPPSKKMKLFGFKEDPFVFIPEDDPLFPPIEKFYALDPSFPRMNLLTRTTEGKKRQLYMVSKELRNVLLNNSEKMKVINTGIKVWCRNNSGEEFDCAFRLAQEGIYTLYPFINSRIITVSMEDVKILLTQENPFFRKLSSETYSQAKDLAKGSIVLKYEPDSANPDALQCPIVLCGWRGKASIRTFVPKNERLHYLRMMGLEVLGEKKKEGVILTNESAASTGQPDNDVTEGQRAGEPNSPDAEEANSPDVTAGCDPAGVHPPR

kinact/Ki: 67 M⁻¹ s⁻¹
Compound: C=CC(=O)N1C[C@H](c2ccc(Br)cc2)[C@@H]1C(=O)Nc1cccc2cccnc12
